{"source": "patent US12433882B2", "about": "“Treatments for amyotrophic lateral sclerosis using dazucorilant” (Corcept Therapeutics Incorporated, priority 2022, dated 2025)", "key": {"[1]": {"target": "T1, progesterone receptor (PR) (Homo sapiens, UniProt P06401)", "T1 sequence (P06401 1-933)": "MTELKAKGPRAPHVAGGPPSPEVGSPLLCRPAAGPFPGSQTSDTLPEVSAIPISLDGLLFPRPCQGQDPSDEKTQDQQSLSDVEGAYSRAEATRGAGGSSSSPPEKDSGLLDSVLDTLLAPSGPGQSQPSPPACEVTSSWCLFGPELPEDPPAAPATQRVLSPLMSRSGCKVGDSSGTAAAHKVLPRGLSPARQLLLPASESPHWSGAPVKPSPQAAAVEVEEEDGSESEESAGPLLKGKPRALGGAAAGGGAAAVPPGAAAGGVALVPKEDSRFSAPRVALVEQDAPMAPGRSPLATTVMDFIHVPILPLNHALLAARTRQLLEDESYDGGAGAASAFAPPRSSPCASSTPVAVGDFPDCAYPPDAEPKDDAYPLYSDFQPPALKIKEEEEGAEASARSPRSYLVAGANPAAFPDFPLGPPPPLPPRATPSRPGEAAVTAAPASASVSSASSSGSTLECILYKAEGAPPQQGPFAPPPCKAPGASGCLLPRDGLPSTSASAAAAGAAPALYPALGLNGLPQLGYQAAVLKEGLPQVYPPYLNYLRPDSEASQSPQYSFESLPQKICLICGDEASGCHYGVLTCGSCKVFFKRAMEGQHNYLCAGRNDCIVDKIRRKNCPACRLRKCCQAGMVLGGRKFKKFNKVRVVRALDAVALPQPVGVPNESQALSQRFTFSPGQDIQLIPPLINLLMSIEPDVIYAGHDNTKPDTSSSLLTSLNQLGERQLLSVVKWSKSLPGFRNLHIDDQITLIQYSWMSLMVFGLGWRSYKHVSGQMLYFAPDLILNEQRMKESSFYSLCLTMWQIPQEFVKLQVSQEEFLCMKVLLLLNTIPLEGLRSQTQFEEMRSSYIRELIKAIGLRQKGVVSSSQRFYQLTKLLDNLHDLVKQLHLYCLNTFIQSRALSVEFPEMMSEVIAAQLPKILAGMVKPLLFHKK", "assay": "Progesterone receptor binding", "details": "10 μM"}, "androgen receptor": {"target": "T2, androgen receptor (Homo sapiens, UniProt P10275)", "T2 sequence (P10275 1-920)": "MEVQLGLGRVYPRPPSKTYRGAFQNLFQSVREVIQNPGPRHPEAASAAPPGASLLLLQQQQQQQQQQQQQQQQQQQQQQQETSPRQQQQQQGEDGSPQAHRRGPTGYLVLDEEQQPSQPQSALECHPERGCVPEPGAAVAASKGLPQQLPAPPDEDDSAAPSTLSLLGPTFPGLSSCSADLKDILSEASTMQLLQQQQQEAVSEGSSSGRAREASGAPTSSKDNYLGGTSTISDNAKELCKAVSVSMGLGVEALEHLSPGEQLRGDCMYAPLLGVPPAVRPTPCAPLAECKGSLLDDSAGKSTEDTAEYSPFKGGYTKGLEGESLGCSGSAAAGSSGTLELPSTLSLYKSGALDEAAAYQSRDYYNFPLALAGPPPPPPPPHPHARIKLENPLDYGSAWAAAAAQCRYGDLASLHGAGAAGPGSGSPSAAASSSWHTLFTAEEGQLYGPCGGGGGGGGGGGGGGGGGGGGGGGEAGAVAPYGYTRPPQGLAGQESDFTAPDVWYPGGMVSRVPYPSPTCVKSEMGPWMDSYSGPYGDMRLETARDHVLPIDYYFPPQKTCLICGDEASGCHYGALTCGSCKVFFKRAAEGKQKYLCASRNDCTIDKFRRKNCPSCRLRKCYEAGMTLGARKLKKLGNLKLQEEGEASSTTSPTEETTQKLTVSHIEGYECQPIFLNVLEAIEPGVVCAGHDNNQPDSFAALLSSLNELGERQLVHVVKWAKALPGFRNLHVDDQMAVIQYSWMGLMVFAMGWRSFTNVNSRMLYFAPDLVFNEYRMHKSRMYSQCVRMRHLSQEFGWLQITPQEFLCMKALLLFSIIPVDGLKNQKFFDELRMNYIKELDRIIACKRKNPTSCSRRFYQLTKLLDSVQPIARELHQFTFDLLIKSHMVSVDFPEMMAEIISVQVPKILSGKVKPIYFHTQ", "assay": "Androgen receptor binding", "details": "10 μM"}, "cortisol or ACTH levels": {"system": "cortisol or ACTH levels", "assay": "First In Human study Part 2, multiple doses: cortisol and ACTH levels", "type": "in vivo", "details": "part 2 of the FIH study"}, "estrogen receptor": {"system": "estrogen receptor", "assay": "Estrogen receptor binding", "details": "10 μM", "description": "(§1) Dazucorilant is selective for GR over other nuclear hormone receptors, and a range of other receptors, enzymes, and ion channels. For example, dazucorilant has high selectivity for GR relative to the progesterone receptor (PR), androgen receptor, and estrogen receptor, showing no significant binding to these receptors at a concentration of 10 μM (0%, 1.5% and […], respectively)."}, "[2]": {"assay": "Safety and tolerability in healthy volunteers", "type": "in vivo"}, "GR": {"target": "T3, GR (Homo sapiens, UniProt P04150)", "T3 sequence (P04150 1-777)": "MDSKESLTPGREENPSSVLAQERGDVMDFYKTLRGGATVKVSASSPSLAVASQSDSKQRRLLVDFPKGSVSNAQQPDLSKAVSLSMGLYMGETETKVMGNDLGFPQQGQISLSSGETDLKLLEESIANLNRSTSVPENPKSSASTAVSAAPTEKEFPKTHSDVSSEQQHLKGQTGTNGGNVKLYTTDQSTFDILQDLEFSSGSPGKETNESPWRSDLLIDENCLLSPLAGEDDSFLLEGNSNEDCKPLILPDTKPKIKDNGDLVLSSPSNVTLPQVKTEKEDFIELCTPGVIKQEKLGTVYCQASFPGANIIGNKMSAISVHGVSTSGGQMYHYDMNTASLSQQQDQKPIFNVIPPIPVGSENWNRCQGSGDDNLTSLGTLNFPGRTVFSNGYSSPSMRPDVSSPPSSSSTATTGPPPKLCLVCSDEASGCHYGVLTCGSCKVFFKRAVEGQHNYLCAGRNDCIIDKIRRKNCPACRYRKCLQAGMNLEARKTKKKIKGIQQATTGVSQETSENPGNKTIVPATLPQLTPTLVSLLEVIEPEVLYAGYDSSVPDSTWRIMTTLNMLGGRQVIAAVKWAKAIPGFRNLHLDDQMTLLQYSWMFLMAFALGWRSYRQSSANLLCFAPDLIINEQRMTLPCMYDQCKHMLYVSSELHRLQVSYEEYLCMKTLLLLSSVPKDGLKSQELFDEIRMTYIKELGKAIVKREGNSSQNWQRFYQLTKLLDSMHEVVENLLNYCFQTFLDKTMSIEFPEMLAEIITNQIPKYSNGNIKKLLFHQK", "assay": "Dexamethasone-induced TAT activity in primary hepatocytes from humans", "type": "cell-based", "design": "endogenous in cells; host or cells: primary hepatocytes from humans", "description": "as §1"}}, "data": [{"smiles": "O=C(c1ccccn1)[C@]12Cc3cnn(-c4ccc(F)cc4)c3C=C1CCN(S(=O)(=O)c1ccc(C(F)(F)F)cc1)C2", "note": "[dazucorilant, (R)-(1-(4-fluorophenyl)-6-((4-(trifluoromethyl)phenyl)sulfonyl)-4,4a, 5,6,7,8-hexahydro-1-H-pyrazolo[3,4-g]isoquinolin-4a-yl) (pyridin-2-yl)methanone]", "values": [{"measurement": "binding to progesterone receptor", "setting": "[1]", "value": 0, "unit": "%"}, {"measurement": "binding to androgen receptor", "setting": "androgen receptor", "value": 1.5, "unit": "%"}, {"measurement": "effects on morning or evening cortisol or ACTH levels", "setting": "cortisol or ACTH levels", "value": "no notable effects"}, {"measurement": "binding to estrogen receptor", "setting": "estrogen receptor", "value": 37.5, "unit": "%"}, {"measurement": "single doses considered safe and well tolerated", "setting": "[2]; both, human, in vivo", "value": "up to 1000 mg"}, {"measurement": "serious or severe treatment-emergent adverse events", "setting": "[2]; healthy volunteers", "value": "No serious or severe treatment-emergent adverse events were reported"}, {"measurement": "most common adverse events", "setting": "[2]; human, in vivo", "value": "gastrointestinal, nervous system, musculoskeletal, and connective tissue disorders"}, {"measurement": "safety concerns", "setting": "[2]; human, in vivo", "value": "no significant safety concerns were identified"}, {"measurement": "severity of adverse events", "setting": "[2]; human, in vivo", "value": "mild to moderate"}, {"measurement": "multiple doses considered safe", "setting": "[2]; multiple doses QD", "value": "up to 300 mg QD"}, {"measurement": "multiple doses safe and generally well tolerated", "setting": "[2]; multiple doses QD", "value": "up to 200 mg QD"}, {"measurement": "dexamethasone-induced increase in TAT activity", "setting": "GR", "value": "prevented the dexamethasone-induced increase in TAT activity"}]}]}
